Results published in article PMC9457810, “Synthesis, Structure and Antileishmanial Evaluation of Endoperoxide–Pyrazole Hybrids” (Molecules, 2022).
Structures can show the parent of a compound that is named as a salt. Values belong to the compound of their own block, whether it stands above or below them.

Assays:
L. major = system: L. major; parameters: method as in PMID 30215271; conditions: given in Figure 1A; cited from earlier work
L. infantum = system: L. infantum; parameters: method as in PMID 26014947; conditions: given in Figure 1A; cited from earlier work
L. donovani = system: L. donovani; parameters: method as in PMID 31979089; conditions: given in Figure 1A; cited from earlier work
[1] = Solubility in culture media (observation); assay type: physicochemical
Text: Calculated intrinsic aqueous solubility (ClogS) values show similar values between trioxolanes (1.20–1.38) and tetraoxanes (1.18–1.21). However, the poor solubility of dispiro 4′’-substituted tetraoxanes may be associated to their structural symmetry. A decrease in molecular symmetry has been correlated to better physicochemical properties, such as absorption and solubility, resulting in enhanced systemic exposure to a drug. So it is anticipated that 3′’-substituted analogues could overcome this solubility issue. Therefore, future optimization to 3”-substituted analogues should be considered. Likewise, conversion of the compounds into water-soluble salts, as well as encapsulation of the endoperoxide structures in delivery systems such as liposomes, could represent alternative strategies to solve the solubility issue.

THP-1 cell line = assay: In vitro cytotoxicity assessment in THP-1 cell line (MTT); assay type: cell-based, human; conditions: THP-1 cells, 48 h, MTT; at least three independent assays; read-out: Cytotoxicity CC50 ± SEM
Description: (§1) THP-1 (ATCC® TIB-202TM) human acute monocytic leukemic cell line was obtained from DSMZ, Germany and cultured in RPMI 1640 (Sigma, Darmstadt, Germany) supplemented with 10% (v/v) FBS, 1% (v/v) penicillin-streptomycin (Sigma), and L-glutamine 200 mM (Sigma) at 37 °C, 5% CO2.
(§2) THP-1 cell line was used to calculate the endoperoxide–pyrazole hybrids’ half-maximal cytotoxic concentration (CC50). THP-1 was plated at a final density of 5 × 10^5 cells/mL, in 96-well flat bottom culture plates (VWR), using six different concentrations of the compounds (OZ1, OZ2, T1, T2 and PIR: 800, 400, 200, 100, 50, 25 µM) and amphotericin B (10, 5, 2.5, 1.25, 0.625, 0.313 µM). A blank (RPMI medium alone) and an untreated control (parasites with RPMI medium plus 1% DMSO as vehicle solution) were also included. All the compounds were plated out in quadruplicate and incubated for 48 h at 37 °C ± 1 °C, 5% CO2.
(§3) Following the incubation period, 20 µL per well of MTT was added as described in Section 3.5.2. After absorbance readings, the CC50 values of each compound were determined with GraphPad Prism V 9.0 (Dotmatics, San Diego, CA, USA) as previously described. At least three independent assays were performed.

[2] = system: L. infantum promastigotes; assay: Leishmania promastigotes in vitro susceptibility (MTT), L. infantum; assay type: cell-based; conditions: Leishmania infantum, 48 h, at least three independent assays, read-out: Promastigotes Susceptibility IC50 ± SEM, L. infantum
L. tropica promastigotes = assay: Leishmania promastigotes in vitro susceptibility (MTT), L. tropica; assay type: cell-based; conditions: Leishmania tropica, 48 h, at least three independent assays, read-out: Promastigotes Susceptibility IC50 ± SEM, L. tropica
[3] = In vitro cytotoxicity assessment in THP-1 cell line (MTT); assay type: cell-based, human; conditions: human, THP-1 cells, 48 h, MTT; at least three independent assays; read-out: Cytotoxicity CC50 ± SEM
Description: as §1, §2, §3

Structure (SMILES): COc1ccc(-c2cn(-c3ccccc3)nc2/C=N/N=C/c2c(C)nn(-c3ccccc3)c2Cl)cc1 [3i]
IC50 (L. major): 0.74 ± 0.1 µM

Structure (SMILES): NCC1CCC2(CC1)OOC1(O2)C2CC3CC(C2)CC1C3 (stereo not shown) [LC95]
IC50 (L. infantum): 9.35 ± 3.64 µM

Structure (SMILES): O=C1CCC2(CC1)OOC1(OO2)C2CC3CC(C2)CC1C3 [LC140]
IC50 (L. donovani): 2.52 ± 0.65 µM

The next lines start with results.

melting point: 156 °C (dec.)
Structure (SMILES): Nc1ccnn1C(=O)C1CCC2(CC1)OOC1(OO2)C2CC3CC(C2)CC1C3 (stereo not shown) (as salt: tosylate) [T1•TsOH, (5-Amino-1H-pyrazol-1-yl) (dispiro[cyclohexane-1,3′-[1,2,4,5]tetraoxane-6′,2″-tricyclo-[3.3.1.1^3,7]-decan]-4-yl) methanone p-tosylate]

Solubility in M199 and RPMI medium [1]: low solubility | IC50 [2]: > 400 µM | IC50 (L. tropica promastigotes): > 400 µM
Structure (SMILES): Nc1ccnn1C(=O)C1CCC2(CC1)OOC1(OO2)C2CC3CC(C2)CC1C3 (stereo not shown) [T1, (5-Amino-1H-pyrazol-1-yl)(dispiro[cyclohexane-1,3′-[1,2,4,5]tetraoxane-6′,2″-tricyclo-[3.3.1.1^3,7]-decan]-4-yl)methanone]
CC50 (THP-1 cell line): > 800 µM

Solubility in M199 and RPMI medium [1]: low solubility
Structure (SMILES): Nc1ccn(C(=O)C2CCC3(CC2)OOC2(OO3)C3CC4CC(C3)CC2C4)n1 (stereo not shown) [T2, (3-Amino-1H-pyrazol-1-yl)(dispiro[cyclohexane-1,3′-[1,2,4,5]tetraoxane-6′,2″-tricyclo[3.3.1.1^3,7]decan]-4-yl)methanone]
CC50 at 48 h [3]: > 800 µM
